# Assay results reported in US20200061173A1, “IMMUNOGENIC COMPOSITION COMPRISING SURVIVIN PEPTIDES” (Vaxeal Research SAS, priority 2016, published 2020).
# Legend:
# [1] = tested on: Survivin peptides-specific T cell responses; test: T cell immunogenicity in mouse strains, ex vivo IFN-γ ELISpot on total splenocytes; settings: splenocytes re-stimulated with the individual SVX-1 peptides
# Procedure: T cell immunogenicity of the mixture and individual Survivin derived polypeptides (S1, S2 and S3) was evaluated in different mouse strains (C57BL/6 (H2^b); BALB/c (H2^d) and CBA (H2^k)) and in the pre-clinical mouse model HLA-DRB1*0101, HLA-A*0201 (with α3 from D^b), H-2^/ transgenic mice (Tg HLA-A2/DR1). The objective of this study was to select the optimal genetic background to further investigate the immunogenicity and therapeutic efficacy of the SVX-1 vaccine composes of an equimolar mixture of these 3 Survivin LSPs.
# Six (6) to ten (10) weeks old female C57BL/6, BALB/c, and CBA mice were obtained from Charles River (Saint-Germain-Nuelles, France).
# The transgenic HLA-A2/DR1 mice, previously described (Pajot et al. 2004), were bred and maintained under specific pathogen-free conditions in an animal facility. […] One week after the last immunization (D21), spleen cells of immunized mice were harvested, and the induction of Survivin peptides-specific T cell responses was detected ex vivo using IFN-γ ELISpot assay on the total splenocytes (2×10^5 cells) re-stimulated overnight with the mix of peptides or the individual peptides. […]
# PBMC T cells = test: Spontaneous T-cell responses against SVX-1 peptides in blood, IFN-γ ELISpot; type: cell-based, human; settings: among the 6 positive patients
# Procedure: Peripheral blood from 7 lung cancer patients was used to monitor the presence of SVX-1 peptides specific T cells. The cancer patients were recruited at the Hôpital Europeen Georges Pompidou (Paris, France). This study was conducted in accordance with French laws and after approval by the local ethics committee. Blood cells were also collected from 3 anonymous healthy donors at the Etablissement Français du Sang (EFS, Rungis, France) as buffy-coat preparations after informed consent and following EFS guidelines. The blood from the healthy donors served as negative controls.
# PBMC were isolated by density centrifugation on Ficoll-Hyperpaque gradients (Sigma-Aldrich). PBMC were cultured for 6 days at 2×10^6 cells/ml in 2 ml per well with complete RPMI medium supplemented with 10% FCS. In each well, a pool of SVX-1 peptides was added at a concentration of 10 μg/ml. On day 2 after the beginning of the culture, IL-2 (Chiron) was added at 20 IU/ml in standard conditions. After 6 days of culture, ELISpot assays were performed using PHA-activated cells pulsed with the pool of SVX-1 peptides or the individual peptides (S1, S2 or S3) as antigen presenting cells (APCs). […]
# Spots were counted using an automated stereomicro-scope (Zeiss). The number of specific T cells expressed as spot-forming cells/10^5 cells was calculated after subtracting negative control values (background). […]
sequence,measurement,setting,value
HRISTFKNWPFLEGCACT (alpha-isoform survivin S1 positions 17-34) [18 amino acid peptide consisting of wild type Survivin amino acids 17-34],T cell responses against individual peptides in CBA mice,[1],mainly directed against the S1 peptides
same,Spontaneous T cell responses against individual peptides in lung cancer patients,PBMC T cells,detected
